Earlier results as cited in patent US20240216293A1, “USE OF PERILLYL ALCOHOL TO ENHANCE LEVO-DOPA DELIVERY” (NEONC TECHNOLOGIES, INC, priority 2021, published 2024).

Tested on: patients with recurrent malignant gliomas
Details: Phase I/IIa trials, intranasal

For `C=C(C)C1CC=C(CO)CC1` (stereo not shown) [NEO100, perillyl alcohol], the toxic side effects is listed as “without toxic side effects”.
